Laboratory results reported in EP2845588A1, “PIN1 inhibitors for use in the prevention and/or treatment of theileriosis, and related applications” (Centre National de la Recherche Scientifique (CNRS), priority 2013, dated 2015).
Like-named read-outs stand apart in the source and are kept apart here.

What was measured:
PIN1 [1] = target: T1, PIN1 (Homo sapiens, UniProt Q13526); settings: cited from earlier work; for IC50: read-out: PIN1 inhibition IC50
PIN1 [2] = target: T1, PIN1; settings: cited from earlier work
[3] = test system: non-parasitized BL3 cells; test: Cell proliferation, live cell count after trypan blue exclusion, BL3; format: cell-based, bovine; settings: BL3 / uninfected cells
Protocol: All infected bovine cell lines used in this study were previously described: TBL3 cells were derived from in vitro infection of the spontaneous bovine-B lymphosarcoma cell line, BL3, with Hissar stock of T.annulata. The TpMD409 lymphocyte cell line are infected with T. parva. The culture conditions of these cell lines were previously described by Moreau et al., 1999. Cells were cultured in RPMI 1640 (Gibco-BRL, Paisley, UK), supplemented with 10% heat-inactivated Fetal calf serum, 4mM L-Glutamine, 25mM HEPES, 10µM β-mercaptoethanol and 100µg/ml penicillin/streptomycin in a humidified 5%CO2 atmosphere at 37°C. HepG2, NIH/3T3 and MEF cells lines were cultured in DMEM (Gibco-BRL, Paisley, UK), supplemented with 10% heat-inactivated Fetal calf serum, 4mM L-Glutamine, 25 mM HEPES, 10µM β-mercaptoethanol and 100µg/ml penicillin/streptomycin in a humidified 5% CO2 atmosphere at 37°C. Cell numbers, as judged by Trypan Blue exclusion test, were determined by counting cells using a Countess automated cell counter (Invitrogen, CA, USA). The anti-parasite drug Buparvaquone (BW720c) was used at 200ng/ml for 72 hours. BW720c has no effect on growth of uninfected cells.
Cells were treated with either Juglone at 5 µM resuspended in Ethanol (Sigma, St Louis, MO, Ref.: H47003), or PiB at 1 µM resuspended in DMSO (Sigma, Ref.: B7688), or Dimethyloxalylglycine DMOG at 0.5 mM resuspended in DMSO (Tebu-bio, MO, USA).

[4] = test system: FBW7 and c-Jun mRNA in TBL3 cells; test: RT-qPCR of FBW7 and c-Jun mRNA in TBL3 cells; format: cell-based, bovine
Protocol: Total cellular RNAs were extracted using an RNeasy Plus Mini Kit (Qiagen, Hilden, Germany) and parasite RNAs were extracted using the classical Trizol Protocol. cDNA synthesis was performed with the Reverse Transcriptase Superscript III (Invitrogen, CA, USA).
Quantitative PCR amplification was performed in the ABI 7500 machine (Applied Biosystems, CA, USA) using the Sybr Green reagent (Applied Biosystems, CA, USA) using the primers listed in Table 5 below. The detection of a single product was verified by dissociation curve analysis. Relative quantities of mRNA were analyzed using the delta Ct method. The βactin qPCR was used for normalization. Table 5: qPCR primers

T1 sequence (Q13526 whole entry): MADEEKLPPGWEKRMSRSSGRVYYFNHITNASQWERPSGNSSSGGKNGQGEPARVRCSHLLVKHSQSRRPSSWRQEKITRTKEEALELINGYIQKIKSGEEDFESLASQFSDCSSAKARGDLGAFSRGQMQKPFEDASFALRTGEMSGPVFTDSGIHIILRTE

CCOC(=O)CN1C(=O)c2ccc3c4ccc5c6c(ccc(c7ccc(c2c37)C1=O)c64)C(=O)N(CC(=O)OCC)C5=O [Diethyl 2,2'-(1,3,8,10-tetraoxo-1,3,8,10-tetrahydroisoquinolino[4 ',5',6':6,5,10]anthra[2,1,9-def]isoquinoline-2,9-diyl)diacetate]
IC50 (PIN1 [1]): 1500 nM

CRYPEVEIC
Ki (PIN1 [2]; read-out: PIN1 inhibition Ki): 520 nM

O=C1C=CC(=O)c2c(O)cccc21 [Juglone, 5-Hydroxy-1,4-naphthlenedione]
proliferation of non-parasitized cells [3]: no effect | mRNA expression [4]: no effect

Ac-Phe-Phe-pSer-Ψ[(Z)CHdC]-Pro-Arg-NH2
IC50 (PIN1 [2]; read-out: PIN1 inhibition IC50): 1300 nM | Ki (PIN1 [2]; read-out: PIN1 inhibition Kis): 1740 nM

Ac-Lys(N-biotinoyl)-Ala-Ala-Bth-D-Thr(PO3H2)-Pip-Nal-Gln-NH2
Ki (PIN1 [2]; read-out: PIN1 inhibition Ki): 1.2 nM

CN1C(=O)c2ccc3c4c(ccc(c24)C1=O)C(=O)N(C)C3=O [2,7-Dimethylbenzo[Imn][3,8]phenanthroline-1,3,6,8(2H,7H)-tetrone]
IC50 (PIN1 [1]): 2000 nM

O=C1Nc2ccc([N+](=O)[O-])cc2/C1=C1/Nc2ccccc2/C1=N/O [(3Z)-3-[(3Z)-3-hydroxyiminoindolin-2-ylidene]-5-nitro-indolin-2-one]
PIN1 inhibition (Ki and/or IC50) (PIN1 [1]; cell prints neither Ki nor IC50): 500 to 2500 nM

S=C(SC(=S)N1CCCCC1)N1CCCCC1 [1-Piperidinecarbodithioic acid, anhydrosulfide]
IC50 (PIN1 [1]): 4100 nM

CCOC(=O)CN1C(=O)c2cccc3cccc(c23)C1=O [Ethyl (1,3-dioxo-1H-benzo[de]isoquinolin-2(3H)-yl)acetate]
IC50 (PIN1 [1]): 5000 nM
